Patent publication US12129229B2, “Amarouciaxanthin A esters and uses thereof” (GAT THERAPEUTICS, S.L., priority 2021, dated 2024)

Columns and labels:
rodent models = settings: Biochem Biophys Res Commun, 2020, 528, 305-310; cited from earlier work
[1] = ACX-Ac oral kinetic assay: plasma levels after intragastric administration; assay type: in vivo, mice Hsd:ICR (CD-1); settings: female mice
Experimental: Immunocompetent mice from the strain Hsd:ICR (CD-1) (females, 6-7 weeks old from ENVIGO), were housed under sterile conditions at a constant temperature of 20-22° C. and relative humidity (45-65%) under daily cycles of light/darkness (12 hours). Sterilized water and food were available ad libitum.
Amarouciaxanthin A acetate (ACX-Ac) was dissolved at 1 mg/mL in a suitable vehicle and sterilized by filtration. Animals were weighted before the assay to determine the appropriate dispensing volume at 10 mL/kg. Formulation was administered once, intragastrically, at 10 mg/kg. Blood was collected at different time points, as stated in Table 1. It was extracted either through the facial vein or by intracardiac puncture (end points), on recipients containing 5 μL of 0.5 M EDTA.
Blood samples were analyzed by HPLC-MS/MS following proprietary analytical methods and the concentration of ACX in each sample was determined. A noncompartmental pharmacokinetic analysis was carried out using individual plasma concentrations versus sampling times by means of the PKPlus® software version 2.0 (Simulations Plus, Lancaster, CA 93534, USA).

ACX-Ac in plasma samples ([1]; ACX-Ac 10 mg/kg once intragastrically, HPLC-MS/MS, 2 min to 72 h)	area under the concentration-time curve (AUCt) of ACX ([1]; analyte ACX after ACX-Ac 10 mg/kg once intragastrically, noncompartmental analysis) [µM·h]	Cmax ([1]; analyte ACX after ACX-Ac 10 mg/kg once intragastrically, noncompartmental analysis, read-out: maximum observed plasma concentration (Cmax) of ACX) [µM]	Molecule	effect on hepatic oxidative stress, inflammation, and fibrosis (rodent models)
–	–	–	CC1=CC(=O)CC(C)(C)[C@@]1(O)CC(=O)/C(C)=C/C=C/C(C)=C/C=C/C=C(C)/C=C/C=C(\C)C=C=C1C(C)(C)C[C@H](O)C[C@@]1(C)O [ACX, Amarouciaxanthin A]	significantly inhibit hepatic oxidative stress, inflammation, and fibrosis
not detected	80.59	9.35	Amarouciaxanthin A acetate [ACX-Ac]	–
